Results from PMC7582672, “Actions of FTY720 (Fingolimod), a Sphingosine-1-Phosphate Receptor Modulator, on Delayed-Rectifier K^+ Current and Intermediate-Conductance Ca^2+-Activated K^+ Channel in Jurkat T-Lymphocytes” (Molecules, 2020).

Molecular target: T1, intermediate-conductance Ca2+-activated K+ channel (IKCa, KCa3.1) (Homo sapiens, UniProt O15554)
T1 construct: gene KCNN4
Assay: cell-attached single-channel recording in Jurkat T-lymphocytes (activator)
Format: cell-based

T1 sequence (O15554 whole entry): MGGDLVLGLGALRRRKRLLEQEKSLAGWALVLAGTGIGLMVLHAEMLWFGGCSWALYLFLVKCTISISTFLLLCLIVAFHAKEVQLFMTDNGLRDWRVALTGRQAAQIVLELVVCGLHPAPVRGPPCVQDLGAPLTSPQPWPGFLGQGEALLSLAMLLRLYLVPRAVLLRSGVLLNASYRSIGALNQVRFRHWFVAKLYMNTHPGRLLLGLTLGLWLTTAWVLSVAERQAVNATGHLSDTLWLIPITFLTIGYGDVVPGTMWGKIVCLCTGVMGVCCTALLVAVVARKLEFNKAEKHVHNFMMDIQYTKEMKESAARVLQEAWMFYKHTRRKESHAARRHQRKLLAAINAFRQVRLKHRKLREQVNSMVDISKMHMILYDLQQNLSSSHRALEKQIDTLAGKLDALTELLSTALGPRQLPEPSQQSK

For `Oc1cc2ccccc2c2ccccc12` [9-phenanthrol], which “cell-attached single-channel recording in Jurkat T-lymphocytes (activator)” value is on record?
The value was “activity of IKCa channels, which was sensitive to block by TRAM-34 and to stimulation by 9-phenanthrol, was readily detected”.
